From patent EP1017810B1, “AGONIST AND ANTAGONIST PEPTIDES OF CARCINOEMBRYONIC ANTIGEN (CEA)” (THE GOVERNMENT OF THE UNITED STATES OF AMERICA, as …, priority 1997, dated 2004)
Where no end group is shown, it is not given here.

Test system: CEA CTL T-Vac8
Experiment: initial screening cytotoxicity assay, 111In release from peptide-incubated C1R-A2 cells with T-Vac8 CTL
Type: cell-based, human
Conditions: peptide at 1, 0.1 and 0.01 µg/ml, E:T=1.45:1, 4 hours

Compound	activation of T-Vac8 cytotoxicity (lysis of peptide-incubated targets)
CC[C@H](C)[C@H](NC(=O)[C@H](CC(N)=O)NC(=O)[C@H](C)NC(=O)CNC(=O)[C@H](CO)NC(=O)[C@H](CC(C)C)NC(=O)[C@@H](N)Cc1ccc(O)cc1)C(=O)N[C@@H](CC(N)=O)C(=O)N[C@@H](CC(C)C)C(=O)O [CAP1-7I]	appeared to be active
YLSGFNLNL [CAP1-5F]	provided stimulation, albeit at reduced levels compared to CAP1 itself
YLSGINLNL [CAP1-5I]	provided stimulation, albeit at reduced levels compared to CAP1 itself
CC(C)C[C@H](NC(=O)[C@H](CC(N)=O)NC(=O)[C@H](CC(C)C)NC(=O)[C@H](CC(=O)O)NC(=O)[C@H](C)NC(=O)CNC(=O)[C@H](CO)NC(=O)[C@H](CC(C)C)NC(=O)[C@@H](N)Cc1ccc(O)cc1)C(=O)O [CAP1-6D]	equal to or better than CAP1
YLSGSNLNL [CAP1-5S]	provided stimulation, albeit at reduced levels compared to CAP1 itself
YLSGACLNL [CAP1-6C]	equal to or better than CAP1
